Assay results published in ChEMBL document CHEMBL3244430, “Antitumor agents. 31. Helenalin sym-dimethylethylenediamine reaction products and related derivatives” (J Med Chem, 1978).

Tests used:
W256 = assay: Antitumor activity against rat Walker 256 cells allografted in Sprague-Dawley rat assessed as survival rate at 2.5 mg/kg relative to control; type: functional
P388 [1] = assay: Antitumor activity against mouse P388 cells allografted in DBA/2 mouse assessed as survival rate at 48 mg/kg relative to control; type: functional
[2] = Cytotoxicity against human Hep2 cells assessed as growth inhibition by microtiter method; type: functional; conditions: HEp-2, read-out: ED50 (the source's name)
P388 [3] = assay: Antitumor activity against mouse P388 cells allografted in DBA/2 mouse assessed as survival rate at 25 mg/kg relative to control; type: functional
P388 [4] = assay: Antitumor activity against mouse P388 cells allografted in DBA/2 mouse assessed as survival rate at 10 mg/kg relative to control; type: functional
P388 [5] = assay: Antitumor activity against mouse P388 cells allografted in DBA/2 mouse assessed as survival rate at 4 mg/kg relative to control; type: functional
[6] = Toxicity in Sprague-Dawley rat allografted with rat Walker 256 cells assessed as mortality after 4 days; type: organism-based; conditions: read-out: MNTD
[7] = Toxicity in DBA/2 mouse allografted with mouse P388 cells assessed as mortality after 4 days; type: organism-based; conditions: read-out: MNTD
P388 [8] = assay: Antitumor activity against mouse P388 cells allografted in DBA/2 mouse assessed as survival rate at 16.8 mg/kg relative to control; type: functional

SMILES | T/C (W256) [%] | EC50 [2] [µg/mL] | T/C (P388 [3]) [%] | other results
C[C@@H]1C[C@H]2OC(=O)[C@@H](C)[C@H]2[C@H](O)[C@]2(C)C(=O)C=C[C@@H]12 | 207 | 0.81 | – | T/C (P388 [1]): 138%
C[C@@H]1C[C@H]2OC(=O)C(CN(C)C)[C@H]2[C@H](O)[C@]2(C)C(=O)C=C[C@@H]12 (some centres undefined) | – | 0.6 | 130 | –
C[C@@H]1C[C@@H](O)[C@@H]([C@H]2CN(C)CCN(C)C2=O)[C@H](O)[C@]2(C)C(=O)C=C[C@@H]12 | 170 | 1.87 | 126 | –
CC(=O)O[C@H]1[C@H](C2CN(C)CCN(C)C2=O)[C@H](O)C[C@@H](C)[C@@H]2C=CC(=O)[C@]21C (some centres undefined) | – | 4.96 | 100 | –
CC(=O)O[C@H]1[C@H](C2CN(C)CCN(C)C2=O)[C@H](OC(=O)/C=C/c2ccccc2)C[C@@H](C)[C@@H]2C=CC(=O)[C@]21C (some centres undefined) | – | 0.84 | 102 | –
C[C@@H]1C[C@@H](OC(=O)/C=C/c2ccccc2)[C@@H](C2CN(C)CCN(C)C2=O)[C@H](O)[C@]2(C)C(=O)C=C[C@@H]12 (some centres undefined) | – | 2.89 | – | T/C (P388 [4]): 123%
C[C@@H]1C[C@@H](OC(=O)/C=C/c2ccccc2)[C@@H](C2CN(C)CCN(C)C2=O)[C@H](OC(=O)/C=C/c2ccccc2)[C@]2(C)C(=O)C=C[C@@H]12 (some centres undefined) | 288 | 0.75 | – | T/C (P388 [4]): 100%
C[C@@H]1C[C@H]2OC(=O)C(CN(C)C)[C@H]2[C@H](O)[C@]2(C)C(=O)CC(N(C)C)[C@@H]12 (some centres undefined) | 136 | 0.85 | – | T/C (P388 [4]): 102%
C=C1C(=O)O[C@@H]2C[C@@H](C)[C@@H]3C=CC(=O)[C@@]3(C)[C@@H](OC(=O)/C=C/c3ccccc3)[C@H]12 | 157 | 0.04 | – | T/C (P388 [5]): 123%
C[C@@H]1C[C@H]2OC(=O)C(CN(C)C)[C@H]2[C@H](O)[C@]2(C)C(O)CC[C@@H]12 (some centres undefined) | – | 3.69 | – | –
C=C1C(=O)O[C@@H]2C[C@@H](C)[C@@H]3C=CC(=O)[C@@]3(C)[C@@H](OC(C)=O)[C@H]12 [ANGUSTIBALIN] | – | 0.29 | 78 | –
O=c1[nH]cc(F)c(=O)[nH]1 [FLUOROURACIL] | – | – | 186 | –
C=C1C(=O)O[C@@H]2C[C@@H](C)[C@@H]3C=CC(=O)[C@@]3(C)[C@@H](O)[C@H]12 [HELENALIN] | 316 | 0.08 | – | MTD at 96 h [6]: 2.5 mg/kg; MTD at 96 h [7]: 16.8 mg/kg; T/C (P388 [8]): 127%
N[C@@H](Cc1ccc(N(CCCl)CCCl)cc1)C(=O)O [MELPHALAN] | 317 | – | 168 | –
